Test results reported in patent US20160015770A1, “COMPOSITIONS FOR TREATMENT OF RETINAL DETACHMENT” (THE REGENTS OF THE UNIVERSITY OF MICHIGAN, priority 2013, published 2016).
Non-standard residues stand in square brackets, D forms with d. Residues, ends and D or L forms follow the SMILES beside them. *: point of attachment. Nle = CCCC[C@H](N)C(=O)O; Cbz = O=C(OCc1ccccc1)*

How the values were obtained:
calpain 1 = biological target: T1, calpain 1 (Mus musculus, UniProt O35350); test: Western blot of calpain 1 specific cleaved alpha-spectrin in 661W cells treated with Fas activating antibody; type: cell-based; conditions: 24 hours, inhibitor added 1 hour before Fas activating antibody, compared to Fas activation alone
T1 construct: endogenous in cells; host or cells: 661W mouse photoreceptor cell line
T1 sequence (O35350 1-713): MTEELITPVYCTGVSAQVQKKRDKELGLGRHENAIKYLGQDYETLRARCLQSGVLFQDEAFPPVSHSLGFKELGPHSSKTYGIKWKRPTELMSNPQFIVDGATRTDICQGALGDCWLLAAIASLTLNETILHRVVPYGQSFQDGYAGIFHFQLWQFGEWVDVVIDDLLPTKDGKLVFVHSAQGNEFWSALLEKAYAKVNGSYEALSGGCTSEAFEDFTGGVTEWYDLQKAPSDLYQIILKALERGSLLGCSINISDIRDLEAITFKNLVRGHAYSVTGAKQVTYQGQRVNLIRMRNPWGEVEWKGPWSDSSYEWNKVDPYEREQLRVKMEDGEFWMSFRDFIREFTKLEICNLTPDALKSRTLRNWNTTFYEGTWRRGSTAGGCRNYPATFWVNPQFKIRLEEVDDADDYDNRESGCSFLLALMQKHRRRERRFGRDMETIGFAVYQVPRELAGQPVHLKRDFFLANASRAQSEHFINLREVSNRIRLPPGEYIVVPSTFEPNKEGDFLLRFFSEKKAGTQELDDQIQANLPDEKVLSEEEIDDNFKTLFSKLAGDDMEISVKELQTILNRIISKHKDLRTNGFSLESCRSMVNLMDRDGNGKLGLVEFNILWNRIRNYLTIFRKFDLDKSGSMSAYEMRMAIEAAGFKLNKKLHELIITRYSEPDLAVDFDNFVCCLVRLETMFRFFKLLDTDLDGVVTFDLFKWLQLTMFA
T1 sequence (O88456 1-268 partner): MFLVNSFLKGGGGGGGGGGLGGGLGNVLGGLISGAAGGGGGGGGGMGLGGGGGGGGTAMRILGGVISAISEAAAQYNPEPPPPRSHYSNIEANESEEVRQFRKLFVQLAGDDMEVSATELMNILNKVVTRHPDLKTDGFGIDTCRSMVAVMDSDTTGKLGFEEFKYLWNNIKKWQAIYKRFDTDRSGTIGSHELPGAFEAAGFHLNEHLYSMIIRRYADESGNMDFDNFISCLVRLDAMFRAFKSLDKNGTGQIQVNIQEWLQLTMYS
Protocol: The 661W photoreceptor cell line was generously provided by Dr. Muayyad Al-Ubaidi (Department of Cell Biology, University of Oklahoma Health Sciences Center, Oklahoma City, Okla.). The 661W cell line was maintained in Dulbecco's modified Eagle's medium containing 10% fetal bovine serum, 300 mg/L glutamine, 32 mg/L putrescine, 40 μL/L β-mercaptoethanol, and 40 μg/L of both hydrocortisone 21-hemisuccinate and progesterone. The media also contained penicillin (90 units/mL) and streptomycin (0.09 mg/mL). Cells were grown at 37° C. in a humidified atmosphere of 5% CO2 and 95% air.
Retinas from experimental eyes with detachment (detached portion of retina only) and control eyes without detachment were dissected from the RPE-choroid, homogenized, and lysed in buffer containing 10 mM HEPES (pH 7.6), 0.5% IgEPal, 42 mM KCl, 1 mM phenylmethylsulfonyl fluoride, 1 mM EDTA, 1 mM EGTA, 1 mM dithiothreitol, 5 mM MgCl2, and one tablet of protease inhibitors per 10 mL buffer (Complete Mini; Roche Diagnostics GmbH, Madison, Wis.). 661W cells were plated at 150,000 cells per well in six-well culture dishes in growth media. After 24 hours, the cells were washed one time with warmed PBS solution and then placed in growth media without fetal bovine serum. Depending on experimental conditions, 500 ng/mL Fas activating antibody (BD Biosciences, San Jose, Calif.) and various calpain inhibitors including MDG-28170 (Sigma, St. Louis, Mo.), MG-101 (Sigma, St. Louis, Mo.), calpeptin (Santa Cruz Biotechnology, Santa Cruz, Calif.) or equal volume of DMSO was added. Calpain inhibitors were added 1 hour prior to the addition of Fas activating antibody. The cells were incubated for various lengths of time and then lysed and homogenized in lysis buffer. The homogenates were incubated on ice and centrifuged at 22,000 g at 4° C. for 60 minutes. The protein concentration of the supernatant was then determined (DC Protein Assay kit; Bio-Rad Laboratories, Hercules, Calif.). The protein samples were separated on SDS-polyacrylamide gels (Tris-HCl Ready Gels; Bio-Rad Laboratories). After electrophoretic separation, the proteins were transferred onto polyvinylidene fluoride membranes (Immobilon-P; Millipore, Billerica, Mass.). Membranes were then immunoblotted with antibodies according to the manufacturer's instructions. The following antibodies were used: LC3b (Cell Signaling, Beverly, Mass.), Atg5 (Abgent, San Diego, Calif.), Atg12 (Cell Signaling, Beverly, Mass.), calpain 1 (Cell Signaling, Beverly, Mass.), alpha-spectrin (Santa Cruz Biotechnology, Santa Cruz, Calif.), actin (Sigma, St. Louis, Mo.), and GAPDH (Abcam, Cambridge, Mass.).
After determining calpain 1 levels, it was looked to correlate this with calpain activity. […]

detached retina [1] = conditions: 7 days, compared to untreated detached retinas, prior work (ref 12); cited from earlier work
detached retina [2] = test: Experimental retinal detachment, western blot of autophagy markers (Atg5, Atg5-12, LC3-II) in retina; type: in vivo; conditions: rat, 50 μg subretinal at time of detachment, 7 days, vs detachments alone
Protocol: All experiments were performed in accordance with the ARVO Statement for the Use of Animals in Ophthalmic and Vision Research and the guidelines established by the University Committee on Use and Care of Animals of the University of Michigan. Detachments were created in adult male Brown-Norway rats (300-400 g; Charles River Laboratories, Wilmington, Mass.) as described previously. Briefly, rodents were anesthetized with a 50:50 mix of ketamine/xylazine, and pupils were dilated with topical phenylephrine (2.5%) and tropicamide (1%). A 20-gauge microvitreoretinal blade was used to create a sclerotomy 2 mm posterior to the limbus, carefully avoiding lens damage. A subretinal injector (Glaser, 32-gauge tip; BD Ophthalmic Systems, Franklin Lakes, N.J.) was introduced through the sclerotomy into the vitreous cavity and then through a peripheral retinotomy into the subretinal space. Sodium hyaluronate (10 mg/mL, Healon OVD; Abbott Medical Optics, Uppsala, Sweden) was slowly injected to detach the neurosensory retina from the underlying RPE. In all experiments, approximately one third to one half of the neurosensory retina was detached. Detachments were created in the left eye. The right eye served as the control, with all the steps of the procedure performed except for introduction of the subretinal injector and injection of the sodium hyaluronate. […]
Retinas from experimental eyes with detachment (detached portion of retina only) and control eyes without detachment were dissected from the RPE-choroid, homogenized, and lysed in buffer containing 10 mM HEPES (pH 7.6), 0.5% IgEPal, 42 mM KCl, 1 mM phenylmethylsulfonyl fluoride, 1 mM EDTA, 1 mM EGTA, 1 mM dithiothreitol, 5 mM MgCl2, and one tablet of protease inhibitors per 10 mL buffer (Complete Mini; Roche Diagnostics GmbH, Madison, Wis.). […] The protein concentration of the supernatant was then determined (DC Protein Assay kit; Bio-Rad Laboratories, Hercules, Calif.). The protein samples were separated on SDS-polyacrylamide gels (Tris-HCl Ready Gels; Bio-Rad Laboratories). […]

Row | cleaved alpha-spectrin levels (calpain 1) | Compound | LC3-II level in retina (detached retina [1]) | Atg5-12 levels in retina (detached retina [2]) | Atg5-12 levels in retina (detached retina [2]; listed as Baf-a)
1 | decreased | CC(C)[C@H](NC(=O)OCc1ccccc1)C(=O)N[C@H](C=O)Cc1ccccc1 [MDG-28170] (Cbz-Val-Phe-aldehyde) | – | – | –
2 | – | CO/C1=C\C(C)=C\[C@@H](C)[C@@H](O)[C@@H](C)C/C(C)=C/C=C/[C@H](OC)[C@@H]([C@@H](C)[C@@H](O)[C@H](C)[C@@]2(O)C[C@@H](O)[C@H](C)[C@@H](C(C)C)O2)OC1=O [Bafilomycin-a] | remain elevated | did not appear to be any increase | no significant difference
3 | decreased | CCCC[C@@H](C=O)NC(=O)[C@H](CC(C)C)NC(=O)[C@H](CC(C)C)NC(C)=O [MG-101] (Ac-Leu-Leu-[Nle]-aldehyde) | – | – | –
